Data reported in publication PMC2818678 (Bioorganic & medicinal chemistry, 2009).

Columns and labels:
[1] = molecular target: T1, human A1 adenosine receptor (hA1AR) (Homo sapiens, UniProt P30542); conditions: at 10 μM; [3H]36; CHO cells expressing hA1AR; ref Tosh et al.[9]; cited from earlier work
T1 sequence (P30542 1-326): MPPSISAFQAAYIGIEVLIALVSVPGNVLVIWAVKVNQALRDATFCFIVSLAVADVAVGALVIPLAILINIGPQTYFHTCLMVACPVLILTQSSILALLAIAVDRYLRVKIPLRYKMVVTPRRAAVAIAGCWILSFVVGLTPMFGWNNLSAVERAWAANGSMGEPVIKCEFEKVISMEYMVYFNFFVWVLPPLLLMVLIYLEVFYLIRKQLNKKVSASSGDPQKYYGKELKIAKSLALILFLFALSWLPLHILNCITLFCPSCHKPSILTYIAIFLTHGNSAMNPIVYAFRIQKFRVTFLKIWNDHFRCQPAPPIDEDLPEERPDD

[2] = molecular target: human A2A adenosine receptor (hA2AAR) (Homo sapiens, UniProt P29274); conditions: at 10 μM; [3H]37; HEK293 cells expressing hA2AAR; ref Tosh et al.[9]; cited from earlier work
[3] = molecular target: T1, human A1 adenosine receptor (hA1AR); assay: Radioligand binding at human A1AR; conditions: read-out: % inhibition of radioligand binding, A1
[4] = molecular target: T2, human A3 adenosine receptor (hA3AR) (Homo sapiens, UniProt P0DMS8); assay: Radioligand binding at human A3AR; conditions: for Selectivity for hA3AR in comparison to A1 and A2AARs (in words): inhibition curves, Figure 1; for Affinity at the A3AR (in words): binding
T2 sequence (P0DMS8 1-318): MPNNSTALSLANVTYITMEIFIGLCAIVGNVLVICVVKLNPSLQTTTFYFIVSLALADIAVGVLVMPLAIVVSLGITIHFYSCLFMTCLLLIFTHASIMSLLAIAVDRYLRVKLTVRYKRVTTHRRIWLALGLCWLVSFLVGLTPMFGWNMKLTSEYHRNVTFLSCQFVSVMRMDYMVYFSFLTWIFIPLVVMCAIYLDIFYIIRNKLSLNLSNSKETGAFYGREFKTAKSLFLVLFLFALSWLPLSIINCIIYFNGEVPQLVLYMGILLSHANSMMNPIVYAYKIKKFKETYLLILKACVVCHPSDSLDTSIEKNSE

human A3AR = molecular target: T3, human A3AR (Homo sapiens, UniProt P0DMS8); assay: Inhibition of forskolin-stimulated cAMP production in A3AR-expressing CHO cells; type: cell-based; conditions: inhibition of forskolin-stimulated cAMP at 10 μM, NECA as reference standard
T3 sequence (P0DMS8 1-318): T2 sequence (P0DMS8 1-318)

human A2A adenosine receptor (hA2AAR), sequence (P29274 whole entry): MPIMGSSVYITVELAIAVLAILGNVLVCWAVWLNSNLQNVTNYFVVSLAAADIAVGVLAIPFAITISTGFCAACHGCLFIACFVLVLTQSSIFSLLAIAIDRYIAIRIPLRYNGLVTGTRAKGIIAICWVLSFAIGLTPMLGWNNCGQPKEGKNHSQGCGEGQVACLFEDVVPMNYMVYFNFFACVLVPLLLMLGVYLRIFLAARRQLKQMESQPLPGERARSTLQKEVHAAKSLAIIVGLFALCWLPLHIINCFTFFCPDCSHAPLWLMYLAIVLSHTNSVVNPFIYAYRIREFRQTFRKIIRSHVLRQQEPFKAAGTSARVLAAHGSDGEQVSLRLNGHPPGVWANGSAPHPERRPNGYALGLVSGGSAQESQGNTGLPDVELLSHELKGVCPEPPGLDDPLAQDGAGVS

CCN1\C(=C/C=C/C=C/C2=[N+](CCCCCC(=O)NCCNC(=O)CCC#Cc3nc(NCc4cccc(Cl)c4)c4ncn([C@H]5[C@H](O)[C@H](O)[C@]6(C(=O)NC)C[C@H]56)c4n3)c3ccc(S(=O)(=O)[O-])cc3C2(C)C)C(C)(C)c2cc(S(=O)(=O)O)ccc21 [Compound 1]
% inhibition of radioligand binding, A1 [1]: (36±3%)

CNC(=O)[C@@]12C[C@@H]1[C@@H](n1cnc3c(NCc4cccc(Cl)c4)nc(C#CCCC(=O)NCCNC(=O)CCCCCNC(=O)CCCCC4SCC5NC(=O)NC54)nc31)[C@H](O)[C@@H]2O (some centres unmarked) [Compound 3]
% inhibition of radioligand binding, A2A [2]: (47±11%)
% inhibition of radioligand binding, A1 [1]: (12±4%)

CNC(=O)[C@@]12C[C@@H]1[C@@H](n1cnc3c(NCc4cccc(Cl)c4)nc(C#CCCCCc4cn(CCCCCCNC(=O)c5ccc(-c6c7ccc(=N)c(S(=O)(=O)O)c-7oc7c(S(=O)(=O)O)c(N)ccc67)c(C(=O)O)c5)nn4)nc31)[C@H](O)[C@@H]2O [Compound 23]
inhibition at 10 µM [3]: 0%

CNC(=O)[C@@]12C[C@@H]1[C@@H](n1cnc3c(NCc4cccc(Cl)c4)nc(C#CCCCCc4cn(C56CC7CC(CC(C7)C5)C6)nn4)nc31)[C@H](O)[C@@H]2O [Compound 18, (1S,2R,3S,4R,5S)-6-(3-Chlorobenzylamino)-(2-(6-(1-(adamantyl)-1H-1,2,3-triazol-4-yl)hex-1-ynyl)-9H-purin-9-yl)-2′,3′-dihydroxybicyclo[3.1.0]hexane-1′-carboxylic acid N-methylamide]
Selectivity for hA3AR in comparison to A1 and A2AARs (in words) [4]: highly selective
A3AR agonist efficacy (in words) (human A3AR): partial agonist

CNC(=O)[C@@]12C[C@@H]1[C@@H](n1cnc3c(NCc4cccc(Cl)c4)nc(C#CCCC(=O)NCCNC(=O)CCCCC4SCC5NC(=O)NC54)nc31)[C@H](O)[C@@H]2O (some centres unmarked) [Compound 2]
% inhibition of radioligand binding, A2A [2]: (51±2%)
% inhibition of radioligand binding, A1 [1]: (1±1%)

CNC(=O)[C@@]12C[C@@H]1[C@@H](n1cnc3c(NCc4cccc(Cl)c4)nc(C#CCCCCc4cn(CCCCN)nn4)nc31)[C@H](O)[C@@H]2O [Compound 16, (1S,2R,3S,4R,5S)-6-(3-Chlorobenzylamino)-(2-(6-(1-(4-aminobutyl)-1H-1,2,3-triazol-4-yl)hex-1-ynyl)-9H-purin-9-yl)-2′,3′-dihydroxybicyclo[3.1.0]hexane-1′-carboxylic acid N-methylamide]
Affinity at the A3AR (in words) [4]: only moderate affinity

CNC(=O)[C@H]1O[C@@H](n2cnc3c(NCc4cccc(I)c4)ncnc32)[C@H](O)[C@@H]1O [IB-MECA, N^6-(3-iodobenzyl)-5′-N-methylcarboxamidoadenosine, reference compound]
A3AR agonist efficacy (in words) (human A3AR): full agonists

CNC(=O)[C@@]12C[C@@H]1[C@@H](n1cnc3c(NCc4cccc(Cl)c4)nc(C#CCCCCc4cn(Cc5ccc(-n6sccc6=O)cc5)nn4)nc31)[C@H](O)[C@@H]2O [Compound 19]
Affinity at the A3AR (in words) [4]: only moderate affinity

CNC(=O)[C@@]12C[C@@H]1[C@@H](n1cnc3c(NCc4cccc(Cl)c4)nc(C#CCCCCc4cn(CCNC(C)=O)nn4)nc31)[C@H](O)[C@@H]2O [Compound 15, (1S,2R,3S,4R,5S)-6-(3-Chlorobenzylamino)-(2-(6-(1-(4-acetamidoethyl)-1H-1,2,3-triazol-4-yl)hex-1-ynyl)-9H-purin-9-yl)-2′,3′-dihydroxybicyclo[3.1.0]hexane-1′-carboxylic acid N-methylamide]
Fold more potent in A3AR binding than higher butyl homologue 17 ([4]; compared with 17): 4 fold
Selectivity for hA3AR in comparison to A1 and A2AARs (in words) [4]: highly selective
A3AR agonist efficacy (in words) (human A3AR): highly efficacious agonists
